In patent publication EP3463364B1, “PYRAZINE DERIVATIVES FOR USE IN THE TREATMENT OF DISEASES ASSOCIATED WITH CELL CYCLE DYSREGULATION” (University of Patras, priority 2016, dated 2017):

Experiments:
MCF7 cancer cells = experiment: Cell cycle progression by propidium iodide flow cytometry, cancer cells; assay type: cell-based; settings: 100 µM, 23hrs
Method: Since the proteins Geminin and Cdtl are key regulators of the cell cycle, the effect of the synthetic compound on the development of the cancer cell and normal cell cycle was studied. Staining of the genetic material of the cells was performed with propidium iodide and the technique of flow cytometry was applied for their separation, based on the amount of genetic material.
MCF7 cells were used as cancer cells, whereas primary cells and particularly embryonic mouse fibroblasts (Mouse Embryonic Fibroblasts, MEFs) were used as normal cells. The cells were incubated with the synthetic chemical compound AF-615/30368009 at a concentration of 100 µM and cultured for 23hrs in 100-mm dishes, to 80% confluency. Cells which had been incubated with only DMSO were used as a negative control sample. The next day of the incubation, cells were harvested using trypsin. […] The experiments were conducted using a Becton Dickinson flow cytometer and the data were analyzed by the WinMDi software version 2.8.
The graphs shown in Fig. 5 are representative of at least two independent experiments. The x axis represents the intensity of the fluorescence of propidium iodide and proportionally the amount of DNA content of the cells, while the y-axis corresponds to the number of events for each phase of the cell cycle.

[1] = target: T1, Geminin-miniCdt1 protein interaction (Homo sapiens, UniProt O75496+Q9H211); experiment: Surface plasmon resonance (SPR): inhibition of Geminin binding to immobilized miniCdt1
T1 construct: corresponds to the amino acid region 158-396 of the human Cdtl protein; Concentrations series of the full-length Geminin and the synthetic chemical compound were simultaneously injected
T1 sequence (Q9H211 158-396): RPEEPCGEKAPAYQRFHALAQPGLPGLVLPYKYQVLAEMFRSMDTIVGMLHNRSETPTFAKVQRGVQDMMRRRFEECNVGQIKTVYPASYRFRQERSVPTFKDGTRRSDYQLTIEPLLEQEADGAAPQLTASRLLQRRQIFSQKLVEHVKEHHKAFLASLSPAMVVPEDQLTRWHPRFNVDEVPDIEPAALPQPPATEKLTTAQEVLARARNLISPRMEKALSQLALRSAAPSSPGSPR
T1 sequence (O75496 1-209): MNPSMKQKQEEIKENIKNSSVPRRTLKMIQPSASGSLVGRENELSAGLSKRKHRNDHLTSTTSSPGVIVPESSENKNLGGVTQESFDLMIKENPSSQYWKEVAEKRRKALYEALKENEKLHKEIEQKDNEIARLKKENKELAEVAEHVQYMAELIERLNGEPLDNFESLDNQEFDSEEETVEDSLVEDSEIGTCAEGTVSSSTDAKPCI
Method: Surface plasmon resonance analysis was performed in order to determine in a quantitative manner the ability of the synthetic compound AF-615/30368009 (compound number 1 in Tables A and B, and Fig. 1) to inhibit the binding of Geminin to the protein miniCdt1 (which corresponds to the amino acid region 158-396 of the human Cdtl protein), by calculating the inhibition constant (KI).
Surface plasmon resonance spectroscopy (SPR) was performed at 25°C, using a Biosensor Biacore instrument (Biacore T100). About 6,000 RU of miniCdt1 protein were immobilized on a CMS Chip (Biacore) at pH 5.5, using amino coupling of Lysine residues. Concentrations series of the full-length Geminin and the synthetic chemical compound were simultaneously injected across the chip in a buffer containing 20 mM Hepes pH 7.5, 200 mM NaCl, 0.01% Tween 20 at a flow rate of 30µl/min. The concentrations used were 12, 36, 107, 322, 966nM for Geminin and 10 µM, 100µM, 1000µM for the compound. The injection of samples was carried out in the presence of 20% DMSO, to ensure high solubility.
In the graphs of Fig. 2, the x axis represents the different concentrations of Geminin (nM), while the y-axis the binding levels in RU (Response Units). […] The results in Fig. 2 indicate the specificity of the in vitro inhibitory effect of the synthetic chemical compound AF-615/30368009 on the Geminin-miniCdt1 protein interaction.

With `O=C(NNC(=S)N1CCOCC1)c1cnccn1` [AF-615/30368009, N'-(morpholine-4-carbothioyl)pyrazine-2-carbohydrazide] the “percentage (%) of cells in G0/G1 and S phases” value (MCF7 cancer cells; MCF7, compared to DMSO control (Fig. 5B vs 5A)) was “significant increase”, the “population of cells corresponding to the G2/M phase of the cell cycle” value (MCF7 cancer cells; MCF7, in comparison to DMSO control (Fig. 5B vs 5A)) was “extremely limited” and the Ki ([1]; SPR at 25°C, Geminin 12-966nM, compound 10-1000µM, 20% DMSO, estimated value, read-out: inhibition constant (KI)) was 750 ± 190 µM. For the same compound, the “inhibition of Geminin binding to miniCdt1” value ([1]; compound at 1000 µM, SPR binding curves (Fig. 2)) was “exhibits inhibition of Geminin binding to miniCdt1”.
